{
  "source": "ChEMBL document CHEMBL4118122",
  "about": "“Identification and biological evaluation of thiazole-based inverse agonists of RORγt” (Bioorg Med Chem Lett, 2018)",
  "key": {"[1]": {"molecular_target": "Adrenergic receptor alpha-1 (Rattus norvegicus) (UniProt P15823+P23944+P43140)", "assay": "Displacement of [3H]-prazosin from rat alpha1 adrenoceptor at 10 uM after 60 mins by scintillation counting analysis relative to control", "format": "protein assay"}, "[2]": {"species": "Rattus norvegicus", "assay": "Displacement of [3H]flunitrazepam from rat brain central BZD at 10 uM after 60 mins relative to control"}, "[3]": {"molecular_target": "Muscarinic acetylcholine receptor M1 (Homo sapiens) (UniProt P11229)", "sequence (P11229 whole entry)": "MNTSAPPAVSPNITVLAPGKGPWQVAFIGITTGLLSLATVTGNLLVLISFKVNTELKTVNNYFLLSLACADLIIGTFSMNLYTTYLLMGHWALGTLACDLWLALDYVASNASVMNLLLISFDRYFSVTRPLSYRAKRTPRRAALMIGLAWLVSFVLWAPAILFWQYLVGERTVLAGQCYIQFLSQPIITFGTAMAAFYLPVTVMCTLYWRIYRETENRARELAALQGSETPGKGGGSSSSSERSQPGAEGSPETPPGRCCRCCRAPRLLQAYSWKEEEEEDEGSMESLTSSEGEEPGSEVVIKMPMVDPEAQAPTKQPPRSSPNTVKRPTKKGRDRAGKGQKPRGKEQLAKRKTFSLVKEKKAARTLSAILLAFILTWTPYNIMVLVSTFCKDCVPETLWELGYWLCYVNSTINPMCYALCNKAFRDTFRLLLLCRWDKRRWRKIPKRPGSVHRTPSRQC", "assay": "Displacement of […] from human recombinant M1 receptor at 10 uM after 60 mins by scintillation counting analysis relative to control"}, "[4]": {"molecular_target": "Substance-K receptor (Homo sapiens) (UniProt P21452)", "assay": "Displacement of [125I]NKA from human recombinant NK2 receptor at 10 uM after 60 mins by scintillation counting analysis relative to control"}, "[5]": {"molecular_target": "Neuropeptide Y receptor type 1 (Homo sapiens) (UniProt P25929)", "sequence (P25929 whole entry)": "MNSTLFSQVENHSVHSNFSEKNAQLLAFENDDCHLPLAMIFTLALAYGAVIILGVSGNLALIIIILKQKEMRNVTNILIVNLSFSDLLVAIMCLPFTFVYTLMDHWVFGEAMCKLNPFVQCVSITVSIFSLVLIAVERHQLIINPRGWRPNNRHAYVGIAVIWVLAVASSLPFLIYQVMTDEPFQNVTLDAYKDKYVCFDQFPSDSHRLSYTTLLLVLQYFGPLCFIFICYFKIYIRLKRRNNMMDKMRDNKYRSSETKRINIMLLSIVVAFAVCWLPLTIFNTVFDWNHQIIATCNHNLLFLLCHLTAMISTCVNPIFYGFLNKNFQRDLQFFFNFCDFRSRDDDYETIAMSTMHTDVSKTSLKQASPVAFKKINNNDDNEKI", "assay": "Displacement of [125I]peptide YY from human Y1 receptor at 10 uM after 120 mins by scintillation counting analysis relative to control"}, "[6]": {"molecular_target": "T1, Neurotensin receptor type 1 (Homo sapiens, UniProt P30989)", "T1 sequence (P30989 whole entry)": "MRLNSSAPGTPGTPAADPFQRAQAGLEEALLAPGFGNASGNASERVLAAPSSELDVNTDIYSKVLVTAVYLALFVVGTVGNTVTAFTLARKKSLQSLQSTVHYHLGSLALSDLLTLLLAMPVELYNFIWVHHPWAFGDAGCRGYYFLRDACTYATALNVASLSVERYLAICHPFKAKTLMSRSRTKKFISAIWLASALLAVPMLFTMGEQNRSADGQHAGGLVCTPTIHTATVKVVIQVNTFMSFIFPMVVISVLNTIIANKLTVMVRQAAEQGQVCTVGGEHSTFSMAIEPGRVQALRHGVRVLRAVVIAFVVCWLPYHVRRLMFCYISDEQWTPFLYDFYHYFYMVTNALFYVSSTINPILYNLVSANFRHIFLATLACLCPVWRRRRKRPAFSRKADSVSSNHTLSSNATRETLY", "assay": "Displacement of [125I]Tyr3-neurotensin from human recombinant NTS1 receptor at 10 uM after 120 mins by scintillation counting analysis relative to control"}, "[7]": {"molecular_target": "T2, Mu-type opioid receptor (Homo sapiens, UniProt P35372)", "T2 sequence (P35372 whole entry)": "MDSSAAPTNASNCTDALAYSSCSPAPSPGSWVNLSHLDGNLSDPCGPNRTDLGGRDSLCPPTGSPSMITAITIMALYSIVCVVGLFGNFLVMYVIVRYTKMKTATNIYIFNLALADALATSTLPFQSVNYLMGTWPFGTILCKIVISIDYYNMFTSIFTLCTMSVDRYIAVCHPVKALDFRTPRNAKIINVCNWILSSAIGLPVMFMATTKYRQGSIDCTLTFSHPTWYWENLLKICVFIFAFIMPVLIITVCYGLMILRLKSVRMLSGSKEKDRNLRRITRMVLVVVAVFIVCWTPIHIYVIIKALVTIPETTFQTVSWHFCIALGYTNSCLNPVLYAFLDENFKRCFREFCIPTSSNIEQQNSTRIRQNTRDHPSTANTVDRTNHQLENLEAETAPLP", "assay": "Displacement of [3H]DAMGO from human recombinant mu receptor at 10 uM after 120 mins by scintillation counting analysis relative to control"}, "[8]": {"molecular_target": "Sodium-dependent serotonin transporter (Homo sapiens, UniProt P31645)", "assay": "Displacement of [3H]-imipramine from recombinant human 5-HT transporter at 10 uM after 60 mins by scintillation counting relative to control"}, "[9]": {"molecular_target": "Adenosine receptor A2a (Homo sapiens, UniProt P29274)", "assay": "Displacement of [3H]-CGS 21680 from human recombinant adenosine A2A receptor at 1 uM after 120 mins by scintillation counting analysis relative to control"}, "[10]": {"molecular_target": "Adrenergic receptor alpha-2 (Rattus norvegicus) (UniProt P22086+P19328+P22909)", "assay": "Displacement of [3H]-RX 821002 from rat alpha2 adrenoceptor at 1 uM after 60 mins by scintillation counting analysis relative to control", "format": "protein assay"}, "[11]": {"molecular_target": "T3, Histamine H1 receptor (Homo sapiens, UniProt P35367)", "T3 sequence (P35367 whole entry)": "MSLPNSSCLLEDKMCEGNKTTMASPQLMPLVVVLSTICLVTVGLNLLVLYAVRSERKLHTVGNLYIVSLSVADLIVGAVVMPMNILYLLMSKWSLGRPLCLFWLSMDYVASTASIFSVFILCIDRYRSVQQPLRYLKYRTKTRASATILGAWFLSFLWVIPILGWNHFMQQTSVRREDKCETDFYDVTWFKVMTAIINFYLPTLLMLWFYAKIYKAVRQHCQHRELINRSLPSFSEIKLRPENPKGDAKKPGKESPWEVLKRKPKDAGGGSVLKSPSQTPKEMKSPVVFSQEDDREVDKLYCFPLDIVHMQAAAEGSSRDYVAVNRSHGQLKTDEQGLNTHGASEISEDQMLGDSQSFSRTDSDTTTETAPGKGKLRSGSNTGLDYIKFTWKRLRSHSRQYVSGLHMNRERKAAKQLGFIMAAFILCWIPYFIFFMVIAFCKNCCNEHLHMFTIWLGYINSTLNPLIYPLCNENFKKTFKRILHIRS", "assay": "Displacement of [3H]pyrilamine from human recombinant histamine H1 receptor at 1 uM after 60 mins by scintillation counting analysis relative to control"}, "[12]": {"molecular_target": "Melanocortin receptor 4 (Homo sapiens, UniProt P32245)", "sequence (P32245 whole entry)": "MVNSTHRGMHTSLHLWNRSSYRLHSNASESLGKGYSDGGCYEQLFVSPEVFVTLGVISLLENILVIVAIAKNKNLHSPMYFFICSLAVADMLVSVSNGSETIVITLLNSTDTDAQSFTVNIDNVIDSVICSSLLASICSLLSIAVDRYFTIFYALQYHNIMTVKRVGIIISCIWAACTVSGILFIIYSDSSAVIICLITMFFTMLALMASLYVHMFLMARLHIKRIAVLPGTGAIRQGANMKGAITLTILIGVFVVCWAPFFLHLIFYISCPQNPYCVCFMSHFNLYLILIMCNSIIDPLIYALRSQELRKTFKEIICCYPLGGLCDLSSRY", "assay": "Displacement of [125I]NDP-alpha-MSH from human recombinant MC4 receptor at 1 uM after 120 mins by scintillation counting analysis relative to control"}, "[13]": {"molecular_target": "T1, Neurotensin receptor type 1", "assay": "Displacement of [125I]Tyr3-neurotensin from human recombinant NTS1 receptor at 1 uM after 120 mins by scintillation counting analysis relative to control"}, "[14]": {"molecular_target": "T2, Mu-type opioid receptor", "assay": "Displacement of [3H]DAMGO from human recombinant mu receptor at 1 uM after 120 mins by scintillation counting analysis relative to control"}, "[15]": {"molecular_target": "Somatostatin receptor (Mus musculus) (UniProt P30935+O08858+P30875+P30873+P49660)", "assay": "Displacement of [125I]Tyr11-somatostatin-14 from mouse SST receptor at 1 uM after 60 mins by scintillation counting analysis relative to control", "format": "protein assay"}, "[16]": {"molecular_target": "Sodium-dependent noradrenaline transporter (Homo sapiens, UniProt P23975)", "assay": "Displacement of [3H]nisoxetine from recombinant human norepinephrine transporter at 1 uM after 120 mins by scintillation counting analysis relative to control"}, "[17]": {"molecular_target": "Type-1 angiotensin II receptor (Homo sapiens, UniProt P30556)", "assay": "Displacement of [125I][Sar1,Ile8]-AT-II from human recombinant AT1 receptor after 120 mins by scintillation counting analysis"}, "[18]": {"molecular_target": "C-C chemokine receptor type 1 (Homo sapiens, UniProt P32246)", "assay": "Displacement of [125I]MIP-1alpha from human recombinant CCR1 receptor after 120 mins by scintillation counting analysis"}, "[19]": {"molecular_target": "T3, Histamine H1 receptor", "assay": "Displacement of [3H]pyrilamine from human recombinant histamine H1 receptor after 60 mins by scintillation counting analysis"}, "[20]": {"molecular_target": "5-hydroxytryptamine receptor 1B (Rattus norvegicus, UniProt P28564)", "assay": "Displacement of [125I]-CYP from rat brain 5-HT1B receptor after 120 mins by scintillation counting analysis"}, "[21]": {"assay": "Binding affinity to GABA-gated chloride channel (unknown origin) by antagonist radioligand binding assay", "set-up": "species or system Homo sapiens"}, "[22]": {"molecular_target": "Epidermal growth factor receptor (Homo sapiens) (UniProt P00533)", "sequence (P00533 whole entry, the tested form may be a part)": "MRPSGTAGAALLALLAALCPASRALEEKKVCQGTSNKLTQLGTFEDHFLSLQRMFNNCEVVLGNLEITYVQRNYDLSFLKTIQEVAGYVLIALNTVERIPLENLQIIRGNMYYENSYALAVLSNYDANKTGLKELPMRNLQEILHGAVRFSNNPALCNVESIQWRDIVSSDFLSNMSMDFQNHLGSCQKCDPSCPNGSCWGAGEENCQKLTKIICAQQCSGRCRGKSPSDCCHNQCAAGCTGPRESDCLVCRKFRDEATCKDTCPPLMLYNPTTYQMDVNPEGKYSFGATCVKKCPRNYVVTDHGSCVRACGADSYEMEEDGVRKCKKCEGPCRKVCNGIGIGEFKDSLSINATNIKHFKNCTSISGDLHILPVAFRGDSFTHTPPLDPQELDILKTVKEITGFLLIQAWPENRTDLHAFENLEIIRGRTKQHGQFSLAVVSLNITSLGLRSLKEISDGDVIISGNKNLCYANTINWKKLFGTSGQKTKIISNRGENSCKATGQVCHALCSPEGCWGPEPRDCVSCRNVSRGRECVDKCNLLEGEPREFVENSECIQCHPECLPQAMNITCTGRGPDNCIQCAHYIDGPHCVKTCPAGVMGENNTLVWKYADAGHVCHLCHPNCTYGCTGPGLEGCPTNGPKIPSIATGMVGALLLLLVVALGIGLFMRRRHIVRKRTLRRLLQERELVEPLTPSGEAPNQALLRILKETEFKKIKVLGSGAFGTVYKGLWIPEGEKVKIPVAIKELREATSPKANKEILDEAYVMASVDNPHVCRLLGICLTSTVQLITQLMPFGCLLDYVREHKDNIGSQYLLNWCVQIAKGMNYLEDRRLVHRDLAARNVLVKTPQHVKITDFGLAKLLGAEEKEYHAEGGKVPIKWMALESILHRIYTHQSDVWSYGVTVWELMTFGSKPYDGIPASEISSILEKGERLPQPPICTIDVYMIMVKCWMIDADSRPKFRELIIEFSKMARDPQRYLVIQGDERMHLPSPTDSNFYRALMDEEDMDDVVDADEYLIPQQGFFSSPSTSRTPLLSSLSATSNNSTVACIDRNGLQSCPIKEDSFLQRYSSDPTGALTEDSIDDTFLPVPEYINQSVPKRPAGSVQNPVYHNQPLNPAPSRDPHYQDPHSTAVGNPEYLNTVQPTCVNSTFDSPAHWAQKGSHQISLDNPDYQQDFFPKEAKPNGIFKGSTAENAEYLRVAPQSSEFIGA", "assay": "Inhibition of recombinant GST-tagged human EGFR (668 to 1210 residues) expressed in baculovirus expression system at 10 uM in presence of ATP relative to control"}, "[23]": {"molecular_target": "Ephrin type-A receptor 2 (Homo sapiens) (UniProt P29317)", "assay": "Inhibition of recombinant GST-tagged human EPHA2 (560 to 976 residues) cytoplasmic domain expressed in baculovirus expression system at 10 uM in presence of ATP relative to control"}, "[24]": {"molecular_target": "Inhibitor of nuclear factor kappa-B kinase subunit beta (Homo sapiens) (UniProt O14920)", "sequence (O14920 whole entry)": "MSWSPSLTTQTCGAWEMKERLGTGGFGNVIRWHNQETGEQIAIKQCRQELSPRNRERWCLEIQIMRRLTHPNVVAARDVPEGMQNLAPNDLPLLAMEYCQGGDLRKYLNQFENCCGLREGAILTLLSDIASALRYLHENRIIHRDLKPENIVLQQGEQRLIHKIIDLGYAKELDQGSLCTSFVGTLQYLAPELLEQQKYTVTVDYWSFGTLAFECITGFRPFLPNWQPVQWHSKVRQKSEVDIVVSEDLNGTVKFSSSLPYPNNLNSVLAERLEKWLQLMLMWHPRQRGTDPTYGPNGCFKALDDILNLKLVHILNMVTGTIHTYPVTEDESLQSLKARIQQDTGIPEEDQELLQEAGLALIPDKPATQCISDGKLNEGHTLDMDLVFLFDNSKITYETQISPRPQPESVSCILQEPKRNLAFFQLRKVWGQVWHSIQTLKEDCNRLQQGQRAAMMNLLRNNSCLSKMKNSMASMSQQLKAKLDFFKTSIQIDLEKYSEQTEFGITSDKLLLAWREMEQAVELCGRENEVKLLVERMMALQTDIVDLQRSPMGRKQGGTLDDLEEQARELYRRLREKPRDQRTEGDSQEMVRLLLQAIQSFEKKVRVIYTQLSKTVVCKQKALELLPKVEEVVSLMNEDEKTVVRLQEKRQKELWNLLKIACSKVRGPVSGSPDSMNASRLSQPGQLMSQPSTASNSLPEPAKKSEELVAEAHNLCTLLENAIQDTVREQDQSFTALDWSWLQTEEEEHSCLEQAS", "assay": "Inhibition of recombinant full length GST-tagged human IKKbeta expressed in baculovirus expression system at 10 uM in presence of ATP relative to control"}, "[25]": {"molecular_target": "Serine/threonine-protein kinase PAK 3 (Homo sapiens) (UniProt O75914)", "sequence (O75914 whole entry, looked up)": "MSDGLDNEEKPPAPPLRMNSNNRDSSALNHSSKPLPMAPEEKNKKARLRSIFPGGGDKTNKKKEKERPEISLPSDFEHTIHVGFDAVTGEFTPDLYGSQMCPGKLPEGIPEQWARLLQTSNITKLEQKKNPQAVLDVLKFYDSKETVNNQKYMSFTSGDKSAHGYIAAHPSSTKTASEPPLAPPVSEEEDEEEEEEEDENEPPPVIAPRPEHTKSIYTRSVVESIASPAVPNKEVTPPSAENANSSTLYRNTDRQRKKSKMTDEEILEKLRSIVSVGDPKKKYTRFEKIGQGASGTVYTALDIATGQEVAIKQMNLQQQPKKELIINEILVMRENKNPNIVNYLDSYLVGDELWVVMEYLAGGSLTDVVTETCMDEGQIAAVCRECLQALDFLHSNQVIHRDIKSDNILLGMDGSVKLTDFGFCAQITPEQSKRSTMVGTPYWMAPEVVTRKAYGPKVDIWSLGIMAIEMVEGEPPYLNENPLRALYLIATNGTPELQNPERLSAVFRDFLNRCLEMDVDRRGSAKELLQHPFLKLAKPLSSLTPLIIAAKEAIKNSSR", "assay": "Inhibition of recombinant full length His-tagged human PAK3 expressed in baculovirus expression system at 10 uM in presence of ATP relative to control"}, "[26]": {"molecular_target": "T4, Cytochrome P450 1A2 (Homo sapiens, UniProt P05177)", "T4 sequence (P05177 whole entry)": "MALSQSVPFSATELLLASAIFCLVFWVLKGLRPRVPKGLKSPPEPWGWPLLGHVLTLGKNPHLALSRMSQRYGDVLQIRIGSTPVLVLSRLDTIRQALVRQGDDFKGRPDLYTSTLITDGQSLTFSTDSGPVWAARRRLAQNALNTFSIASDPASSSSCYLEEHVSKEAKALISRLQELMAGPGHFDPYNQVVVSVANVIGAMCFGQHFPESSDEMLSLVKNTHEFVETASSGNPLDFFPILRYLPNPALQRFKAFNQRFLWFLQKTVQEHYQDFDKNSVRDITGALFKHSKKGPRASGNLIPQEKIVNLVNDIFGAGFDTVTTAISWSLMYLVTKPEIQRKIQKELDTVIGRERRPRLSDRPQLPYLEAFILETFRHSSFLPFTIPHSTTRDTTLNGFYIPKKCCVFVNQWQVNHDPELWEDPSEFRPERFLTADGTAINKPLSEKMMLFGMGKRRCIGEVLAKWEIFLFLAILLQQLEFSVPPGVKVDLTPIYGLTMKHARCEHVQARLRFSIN", "assay": "Inhibition of CYP1A2 (unknown origin)", "format": "ADME"}, "[27]": {"assay": "Volume of distribution at steady state in Sprague-Dawley rat at 1 mg/kg, iv", "format": "ADME, organism-based", "conditions": "in vivo, read-out: Vdss"}, "[28]": {"assay": "Half life in Sprague-Dawley rat at 1 mg/kg, iv", "format": "ADME, organism-based", "conditions": "in vivo"}},
  "note": "pIC50: −log10 of the molar value.",
  "data": [
    {"smiles": "CC(C)(C)NS(=O)(=O)c1ccc(-c2sc(C(=O)N[C@H]3C[C@H](C(=O)O)C3)nc2CC2CCCCC2)c2ccccc12", "values": [
      {"measurement": "inhibition", "setting": "[1]", "value": "< 10", "unit": "%"},
      {"measurement": "inhibition", "setting": "[2]", "value": "< 10", "unit": "%"},
      {"measurement": "inhibition", "setting": "[3]", "value": "< 10", "unit": "%"},
      {"measurement": "inhibition", "setting": "[4]", "value": "< 10", "unit": "%"},
      {"measurement": "inhibition", "setting": "[5]", "value": "< 10", "unit": "%"},
      {"measurement": "inhibition", "setting": "[6]", "value": "< 10", "unit": "%"},
      {"measurement": "inhibition", "setting": "[7]", "value": 12, "unit": "%"},
      {"measurement": "inhibition", "setting": "[8]", "value": "< 10", "unit": "%"},
      {"measurement": "inhibition", "setting": "[9]", "value": 21, "unit": "%"},
      {"measurement": "inhibition", "setting": "[10]", "value": "< 10", "unit": "%"},
      {"measurement": "inhibition", "setting": "[11]", "value": 11, "unit": "%"},
      {"measurement": "inhibition", "setting": "[12]", "value": "< 10", "unit": "%"},
      {"measurement": "inhibition", "setting": "[13]", "value": "< 10", "unit": "%"},
      {"measurement": "inhibition", "setting": "[14]", "value": "< 10", "unit": "%"},
      {"measurement": "inhibition", "setting": "[15]", "value": "< 10", "unit": "%"},
      {"measurement": "inhibition", "setting": "[16]", "value": "< 10", "unit": "%"},
      {"measurement": "pIC50", "setting": "[17]", "value": 9.33},
      {"measurement": "pIC50", "setting": "[18]", "value": 10.09},
      {"measurement": "pIC50", "setting": "[19]", "value": 8.77},
      {"measurement": "pIC50", "setting": "[20]", "value": 7.85},
      {"measurement": "pIC50", "setting": "[21]", "value": 6.66},
      {"measurement": "inhibition", "setting": "[22]", "value": -3, "unit": "%"},
      {"measurement": "inhibition", "setting": "[23]", "value": -7, "unit": "%"},
      {"measurement": "inhibition", "setting": "[24]", "value": -4, "unit": "%"},
      {"measurement": "inhibition", "setting": "[25]", "value": 5, "unit": "%"},
      {"measurement": "INH", "setting": "[26]", "value": "> 10", "unit": "µM"},
      {"measurement": "Vd", "setting": "[27]", "value": 1.1, "unit": "L/kg"},
      {"measurement": "half-life", "setting": "[28]", "value": 42, "unit": "min"}
    ]}
  ]
}
